Assays:
[1] = target: T1, Serine/threonine-protein kinase Chk1 (Homo sapiens, UniProt O14757); experiment: Inhibition of CHK1 (unknown origin) incubated for 1 hr in presence of ATP by HTRF assay
T1 sequence (O14757 whole entry): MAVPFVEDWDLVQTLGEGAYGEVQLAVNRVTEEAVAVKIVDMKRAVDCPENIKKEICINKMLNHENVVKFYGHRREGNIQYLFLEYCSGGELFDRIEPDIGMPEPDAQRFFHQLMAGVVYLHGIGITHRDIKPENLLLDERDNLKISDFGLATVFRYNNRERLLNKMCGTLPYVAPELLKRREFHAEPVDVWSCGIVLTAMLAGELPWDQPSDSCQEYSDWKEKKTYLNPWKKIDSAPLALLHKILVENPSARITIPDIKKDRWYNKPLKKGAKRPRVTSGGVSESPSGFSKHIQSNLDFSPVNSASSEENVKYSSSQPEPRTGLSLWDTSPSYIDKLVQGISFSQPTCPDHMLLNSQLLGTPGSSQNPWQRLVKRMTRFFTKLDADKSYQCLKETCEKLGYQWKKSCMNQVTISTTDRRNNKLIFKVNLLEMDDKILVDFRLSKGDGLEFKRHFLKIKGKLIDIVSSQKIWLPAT

[2] = test system: MV4-11; experiment: Antiproliferation activity against human MV4-11 cells assessed as reduction in cell viability incubated for 72 hrs by MTS assay; format: functional, cell-based; conditions: MV4-11, 72 h
[3] = test system: Z-138; experiment: Antiproliferation activity against human Z138 cells assessed as reduction in cell viability incubated for 72 hrs by MTS assay; format: functional, cell-based; conditions: Z-138, 72 h
[4] = Half life in ICR mouse at 20 mg/kg, po measured after 0.083 to 48 hrs by LC-MS/MS analysis; format: ADME, organism-based; conditions: in vivo, time 0.083-48 hrs
[5] = Tmax in ICR mouse at 20 mg/kg, po measured after 0.083 to 48 hrs by LC-MS/MS analysis; format: ADME, organism-based; conditions: in vivo, time 0.083-48 hrs
[6] = Cmax in ICR mouse at 20 mg/kg, po measured after 0.083 to 48 hrs by LC-MS/MS analysis; format: ADME, organism-based; design: route oral, time upper 48 hrs, time lower 0.083 hrs, dose 20 mg/kg; conditions: in vivo
[7] = AUCt in ICR mouse at 20 mg/kg, po measured after 0.083 to 48 hrs by LC-MS/MS analysis; format: ADME, organism-based; design: route oral, dose 20 mg/kg, time 0.083-48 hrs; conditions: in vivo
[8] = AUC (0 to infinity) in ICR mouse at 20 mg/kg, po measured after 0.083 to 48 hrs by LC-MS/MS analysis; format: ADME, organism-based; design: route oral, time upper 48 hrs, time lower 0.083 hrs, dose 20 mg/kg; conditions: in vivo
[9] = MRT (0 to infinity) in ICR mouse at 20 mg/kg, po measured after 0.083 to 48 hrs by LC-MS/MS analysis; format: ADME, organism-based; conditions: in vivo, time 0.083-48 hrs
[10] = target: hERG (KCNH2) (Homo sapiens, UniProt Q12809); experiment: Inhibition of human ERG expressed in HEK293 cells at 10 uM by patch-clamp technique relative to control; format: cell-based; conditions: HEK293 cells that express hERG
Chain of hERG (KCNH2) (Q12809 whole entry): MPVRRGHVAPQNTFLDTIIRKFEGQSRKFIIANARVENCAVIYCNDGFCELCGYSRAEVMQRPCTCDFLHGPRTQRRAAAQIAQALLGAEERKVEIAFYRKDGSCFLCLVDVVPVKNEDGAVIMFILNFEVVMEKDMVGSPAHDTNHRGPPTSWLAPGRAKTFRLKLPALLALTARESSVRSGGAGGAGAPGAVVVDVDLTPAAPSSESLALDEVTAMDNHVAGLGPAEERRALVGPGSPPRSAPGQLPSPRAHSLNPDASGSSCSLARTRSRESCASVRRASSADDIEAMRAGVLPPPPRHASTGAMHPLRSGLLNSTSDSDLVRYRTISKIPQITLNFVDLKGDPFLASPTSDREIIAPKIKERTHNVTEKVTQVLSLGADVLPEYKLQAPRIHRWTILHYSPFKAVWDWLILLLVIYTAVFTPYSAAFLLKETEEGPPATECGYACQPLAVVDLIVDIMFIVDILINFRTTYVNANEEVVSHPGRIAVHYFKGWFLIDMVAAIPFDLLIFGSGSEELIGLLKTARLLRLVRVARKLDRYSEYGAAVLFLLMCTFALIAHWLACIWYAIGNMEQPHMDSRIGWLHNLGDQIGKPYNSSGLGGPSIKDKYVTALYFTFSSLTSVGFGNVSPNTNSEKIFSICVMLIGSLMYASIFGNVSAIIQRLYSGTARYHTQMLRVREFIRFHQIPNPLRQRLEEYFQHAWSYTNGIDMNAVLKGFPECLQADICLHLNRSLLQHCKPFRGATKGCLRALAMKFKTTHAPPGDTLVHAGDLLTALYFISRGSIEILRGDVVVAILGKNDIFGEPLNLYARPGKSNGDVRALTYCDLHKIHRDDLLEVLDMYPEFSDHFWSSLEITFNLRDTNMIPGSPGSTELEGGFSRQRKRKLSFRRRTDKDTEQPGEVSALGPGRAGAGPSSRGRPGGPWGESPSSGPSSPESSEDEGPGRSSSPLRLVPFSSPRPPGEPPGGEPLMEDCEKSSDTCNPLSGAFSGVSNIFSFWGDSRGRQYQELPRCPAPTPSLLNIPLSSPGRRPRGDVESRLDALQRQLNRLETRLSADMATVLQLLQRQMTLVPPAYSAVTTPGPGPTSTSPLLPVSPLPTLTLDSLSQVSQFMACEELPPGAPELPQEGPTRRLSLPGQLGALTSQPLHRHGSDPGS

[11] = test system: MV4-11; experiment: Antitumor activity against human MV4-11 cells xenografted in mouse assessed as inhibition of tumor growth by measuring T/C ratio at 30 mg/kg, po dosed 5 days/week for 3 weeks measured twice every week; format: functional

Row | SMILES | IC50 [1] | IC50 [2] | IC50 [3] | other results
1 | CNc1nc(Nc2cnc(C#N)c(OC3CCNCC3)c2)ncc1C(F)(F)F | 32.7 nM | 240 nM | 440 nM | 
2 | CN(C)CCCNc1nc(Nc2ccc(C#N)nc2)ncc1C(F)(F)F | 458 nM |  |  | 
3 | CC(C)NCCCNc1nc(Nc2ccc(C#N)nc2)ncc1C(F)(F)F | 1980 nM |  |  | 
4 | N#Cc1ccc(Nc2ncc(C(F)(F)F)c(NCCCCN)n2)cn1 | 88.4 nM |  |  | 
5 | CNc1nc(Nc2cnc(C#N)c(OC3CCN(C)CC3)c2)ncc1C(F)(F)F | 53.7 nM |  |  | 
6 | CNc1nc(Nc2cnc(C#N)c(O[C@@H]3CCCNC3)c2)ncc1-c1cnn(C(F)(F)F)c1 | 6.8 nM |  |  | half-life [4]: 0.89 h; Tmax [5]: 2 h; Cmax [6]: 93 ng/mL; AUC(0-t) [7]: 126 ng·h/mL; AUC(0-inf) [8]: 130 ng·h/mL; MRT inf [9]: 2.58 h
7 | N#Cc1ccc(Nc2ncc(C(F)(F)F)c(NC[C@@H]3CCCNC3)n2)cn1 | 23.8 nM | 300 nM | 1190 nM | inhibition at 10 µM [10]: 41.1%
8 | CNc1nc(Nc2cnc(C#N)c(O[C@@H]3CCNC3)c2)ncc1C(F)(F)F | 21.3 nM | 430 nM | 1410 nM | 
9 | N#Cc1ccc(Nc2ncc(C(F)(F)F)c(NCCCNC3CCC3)n2)cn1 | 1490 nM |  |  | 
10 | N#Cc1ccc(Nc2ncc(C(F)(F)F)c(NC3CCCNC3)n2)cn1 (racemic) | 69.5 nM |  |  | 
11 | CNc1nc(Nc2cnc(C#N)c(NCCCN)c2)ncc1C(F)(F)F | 51.1 nM |  |  | 
12 | N#Cc1ccc(Nc2ncc(C(F)(F)F)c(NCCCNCC(O)CO)n2)cn1 (centres undefined) | 152 nM |  |  | 
13 | N#Cc1ccc(Nc2ncc(C(F)(F)F)c(NCCCNCCN3CCOCC3)n2)cn1 | 1610 nM |  |  | 
14 | CNc1nc(Nc2cnc(C#N)c(NCC3CCCCN3)c2)ncc1C(F)(F)F (centres undefined) | 46.9 nM | 160 nM | 210 nM | 
15 | CNc1nc(Nc2cnc(C#N)c(O[C@H]3CCCNC3)c2)ncc1C(F)(F)F | 355 nM |  |  | 
16 | N#Cc1ccc(Nc2ncc(C(F)(F)F)c(NCCCN)n2)cn1 | 20.9 nM | 140 nM | 460 nM | inhibition at 10 µM [10]: 43.4%; half-life [4]: 0.76 h; Tmax [5]: 0.5 h; Cmax [6]: 2860 ng/mL; AUC(0-t) [7]: 3300 ng·h/mL; AUC(0-inf) [8]: 4100 ng·h/mL; MRT inf [9]: 1.3 h; T/C [11]: 29.94%

Row | SMILES | IC50 [1] | IC50 [2] | IC50 [3] | other results
17 | COCCNCCCNc1nc(Nc2ccc(C#N)nc2)ncc1C(F)(F)F | 577 nM |  |  | 
18 | CC(C)(CN)CNc1nc(Nc2ccc(C#N)nc2)ncc1C(F)(F)F | 220 nM |  |  | 
19 | N#Cc1ccc(Nc2ncc(C(F)(F)F)c(NC[C@@H]3CCNC3)n2)cn1 | 40.3 nM | 200 nM | 1170 nM | 
20 | CNCCCNc1nc(Nc2ccc(C#N)nc2)ncc1C(F)(F)F | 12.9 nM | 240 nM | 300 nM | inhibition at 10 µM [10]: 73.3%; half-life [4]: 4.12 h; Tmax [5]: 0.5 h; Cmax [6]: 1530 ng/mL; AUC(0-t) [7]: 6600 ng·h/mL; AUC(0-inf) [8]: 6700 ng·h/mL; MRT inf [9]: 5.62 h; T/C [11]: 35.36%
21 | N#Cc1ccc(Nc2ncc(C(F)(F)F)c(N[C@H]3CCNC3)n2)cn1 | 214 nM |  |  | 
22 | CNc1nc(Nc2cnc(C#N)c(NC[C@@H]3CCNC3)c2)ncc1C(F)(F)F | 20.2 nM | 140 nM | 270 nM | inhibition at 10 µM [10]: 2.4%
23 | CNc1nc(Nc2cnc(C#N)c(O[C@@H]3CCCNC3)c2)ncc1C(F)(F)F | 7.6 nM | 330 nM | 1390 nM | inhibition at 10 µM [10]: 91.6%; half-life [4]: 0.7 h; Tmax [5]: 1.08 h; Cmax [6]: 127 ng/mL; AUC(0-t) [7]: 166 ng·h/mL; AUC(0-inf) [8]: 168 ng·h/mL; MRT inf [9]: 1.57 h
24 | N#Cc1ccc(Nc2ncc(C(F)(F)F)c(NCC3CCCNC3)n2)cn1 (racemic) | 62.6 nM |  |  | 
25 | N#Cc1ccc(Nc2ncc(C(F)(F)F)c(NC[C@H]3CNCCO3)n2)cn1 | 37.3 nM | 400 nM | 1130 nM | inhibition at 10 µM [10]: 31.3%
26 | CNc1nc(Nc2cnc(C#N)c(NCCN)c2)ncc1C(F)(F)F | 19.1 nM | 210 nM | 400 nM | inhibition at 10 µM [10]: 9%
27 | CNc1nc(Nc2cnc(C#N)c(OCCCN)c2)ncc1C(F)(F)F | 78 nM |  |  | 
28 | N#Cc1ccc(Nc2ncc(C(F)(F)F)c(NCCCNC3CCCC3)n2)cn1 | 5500 nM |  |  | 
29 | CNC(C)CCNc1nc(Nc2ccc(C#N)nc2)ncc1C(F)(F)F (centres undefined) | 16.3 nM | 150 nM | 350 nM | inhibition at 10 µM [10]: 35.5%
30 | N#Cc1ccc(Nc2ncc(C(F)(F)F)c(NCCN)n2)cn1 | 217 nM |  |  | 
31 | N#Cc1ccc(Nc2ncc(C(F)(F)F)c(NCCCNC3CCCCC3)n2)cn1 | 2260 nM |  |  | 

Source: ChEMBL document CHEMBL4828771, “Discovery and Development of a Potent, Selective, and Orally Bioavailable CHK1 Inhibitor Candidate: 5-((4-((3-Amino-3-methylbutyl)amino)-5-(trifluoromethyl)pyrimidin-2-yl)amino)picolinonitrile” (J Med Chem, 2021)
